This data set is described as follows: photoluminescence quantum yield (fraction); solvent given as SMILES.

These results are taken from the Deep4Chem optical property database.

Each structure is given as a SMILES string.

Take `F[B-]1(F)n2ccnc2-c2cccc[n+]21`: the photoluminescence quantum yield was 0.03 (in C1CCCCC1); 0.44 (in C1CCOC1); 0.28 (in C1COCCO1); 0.28 (in CC#N); 0.03 (in CCCCCC); 0.03 (in CO). The molecule further returned a photoluminescence quantum yield (in ClC(Cl)Cl) of 0.14.
Turning to `O=C1C2=C(O[B-](F)(F)[n+]3c2ccc2ccccc23)c2ccc(N3CCOCC3)c3cccc1c23`, the photoluminescence quantum yield by setting is: (in C1CCOC1) 0.55; (in CC#N) 0.49; (in CCO) 0.46; (in CO) 0.45; (in ClCCl) 0.53.
Molecule `Cc1ccc(C#Cc2ccc(C#Cc3ccc(C#Cc4ccccc4C#N)cc3C#N)cc2C#N)cc1` showed a photoluminescence quantum yield (in ClC(Cl)Cl) of 0.96.
Under “in ClCCl”, `COc1ccc(-c2ccc(C(=O)NC(C)(C)C)c3c2ccc2c4ccccc4c4ccccc4c23)cc1` showed a photoluminescence quantum yield of 0.21.
For `c1ccc(N(c2ccccc2)c2ccc(-c3ncc(-c4ccc(-c5cnc(-c6ccc(N(c7ccccc7)c7ccccc7)cc6)s5)s4)s3)cc2)cc1`, the photoluminescence quantum yield (in CO) came to 0.16.
Turning to `Cc1ccc(C#Cc2ccc3ccc4cccc5ccc2c3c45)cc1`, the photoluminescence quantum yield is, setting by setting: (in CCCCCC) 0.29; (in CCO) 0.3; (in CCOC(C)=O) 0.29; (in ClCCl) 0.38.
On to `F[B-]1(F)n2c(c3cccc4cccc2c43)=Nc2cccc(Cl)[n+]21`, for which the photoluminescence quantum yield runs as follows: (in C1CCOC1) 0.99; (in CC#N) 0.99; (in CCCCCC) 0.99; (in Cc1ccccc1) 0.99; (in ClCCl) 0.99.
For `O=c1oc2ccccc2cc1-c1ccc([N+](=O)[O-])cc1`, the photoluminescence quantum yield runs as follows: (in C1CCOC1) 0.006; (in CC#N) 0.0022; (in CS(C)=O) 0.0013; (in ClC(Cl)Cl) 0.013.
As to `CCOC(=O)c1ccc(C2=C(c3ccccc3)c3sc4ccccc4[n+]3[B-](F)(F)O2)cc1`, the photoluminescence quantum yield (in C1CCOC1) amounted to 0.011.
For `COC(=O)c1noc(-c2ccccc2)c1Cl`, the photoluminescence quantum yield (in C1CCCCC1) turned out to be 0.368.
Molecule `CCCCCCOc1cc(N(CC)CC)ccc1/C=C/C(=C(C#N)C#N)c1ccc(N(c2ccccc2)c2ccccc2)cc1` displayed a photoluminescence quantum yield (in ClCCl) of 0.178.
`COc1cc(C2=CC3=C(c4c(C)cc(C)cc4C)c4cc(-c5cc(OC)c(OC)c(OC)c5)c(-c5cc(OC)c(OC)c(OC)c5)n4[B-](F)(F)[N+]3=C2c2cc(OC)c(OC)c(OC)c2)cc(OC)c1OC`: the photoluminescence quantum yield (in C1CCCCC1) came out at 0.33; the photoluminescence quantum yield (in C1CCOC1) amounted to 0.08; the photoluminescence quantum yield (in CC#N) was 0.02; the photoluminescence quantum yield (in Cc1ccccc1) is 0.16; the photoluminescence quantum yield (in ClCCl) was 0.05.
For the molecule `CC(NC(=O)OC(C)(C)C)C(=O)OCc1ccc2c3cccc4cccc(c5cccc1c52)c43` (stereo unspecified), where the note is “in CCO”, the photoluminescence quantum yield stood at 0.88.
`CCCCN(CCCC)c1ccc(C#Cc2cc(C#Cc3ccc(N(CCCC)CCCC)cc3)c(C#Cc3cc(C(F)(F)F)cc(C(F)(F)F)c3)cc2C#Cc2cc(C(F)(F)F)cc(C(F)(F)F)c2)cc1` returned a photoluminescence quantum yield (in ClCCl) of 0.34.
`CCCCCCN1C(=O)c2cccc3cc(/N=C\c4cn(C)c5ccccc45)cc(c23)C1=O` yielded a photoluminescence quantum yield (in ClC(Cl)Cl) of 0.03.
In turn, `F[B-]1(F)n2c(nc3c4ccccc4c4ccccc4c32)-c2ccc3ccccc3[n+]21` came in with a photoluminescence quantum yield (in ClCCl) of 0.9.
For `CCC1=C(C)C2=Cc3c4ccccc4c4n3[B-](c3ccc5ccc6cccc7ccc3c5c67)(Oc3ccccc3-4)[N+]2=C1C` (stereo unspecified), the photoluminescence quantum yield came out at 0.66 (in CC#N), 0.72 (in CCCCCC), 0.66 (in Cc1ccccc1) and 0.71 (in ClCCl).
As to `O=C(c1ccc(-n2c3ccccc3c3cc(-n4c5ccccc5c5ccccc54)ccc32)cc1)c1ccc(-n2c3ccccc3c3cc(-n4c5ccccc5c5ccccc54)ccc32)cn1`, the photoluminescence quantum yield was found to be 0.38 (in Cc1ccccc1) and 0.73 (in O=P(c1ccccc1)(c1ccccc1)c1ccccc1Oc1ccccc1P(=O)(c1ccccc1)c1ccccc1).
In the case of `CCC1(CC)c2ccccc2-c2c1c1c(c3c2C(CC)(CC)c2cc(B(c4c(C)cc(C)cc4C)c4c(C)cc(C)cc4C)ccc2-3)C(CC)(CC)c2cc(B(c3c(C)cc(C)cc3C)c3c(C)cc(C)cc3C)ccc2-1`, the photoluminescence quantum yield (in C1CCOC1) is 0.4.
`CN1CCc2cc(C3=Cc4cccc[n+]4[B-](F)(F)O3)ccc21` returned a photoluminescence quantum yield (in ClC(Cl)Cl) of 0.639.
Consider `COc1ccc(-n2nc(C#N)c(N3CCCCC3)n2)cc1`, for which the photoluminescence quantum yield (in CC#N) turned out to be 0.929.
With `C[Si](C)(C)c1ccc(-c2ccc(-c3ccc(-c4ccc(-c5ccc([Si](C)(C)C)cc5)s4)c4nsnc34)s2)cc1`, under “in C1CCOC1”, the photoluminescence quantum yield was determined as 0.77.
On to `CCCN1C(=O)c2c3c(c4c(c2C1=O)CCc1cc(-c2ccc(N(C)C)cc2)c(OC)cc1-4)-c1cc(OC)c(-c2ccc(N(C)C)cc2)cc1CC3`, for which the photoluminescence quantum yield (in C1CCCCC1) was found to be 0.752; the photoluminescence quantum yield (in C1CCOC1) came out at 0.069; the photoluminescence quantum yield (in CCOC(C)=O) stood at 0.065; the photoluminescence quantum yield (in Cc1ccccc1) is 0.726; the photoluminescence quantum yield (in ClCCl) stood at 0.023.
In the case of `CC(=O)c1ccc(C#Cc2ccc3c(N(C)C)cc(-c4ccccc4)cc3c2)cc1`, for the setting “in ClCCl”, the photoluminescence quantum yield was 0.01.
In the case of `Cc1cc2c(o1)c(Br)cc1c(C)cc(=O)oc12`, the photoluminescence quantum yield reads like this: (in C1CCCCC1) 0.0004; (in C1COCCO1) 0.002; (in CC#N) 0.0014; (in CCO) 0.005; (in OCC(F)(F)F) 0.005.
On to `CCOC(=O)CSc1nc(C)c(C)c(C#N)c1C#N`, for which, where the note is “in c1ccccc1”, the photoluminescence quantum yield came to 0.035.
Molecule `COc1ccc(-c2cc3c(o2)=CC2=Cc4cc5oc(-c6ccc(OC)cc6)cc5n4[B-](F)(F)[N+]=32)cc1` displayed a photoluminescence quantum yield (in C1CCOC1) of 0.83; a photoluminescence quantum yield (in CC#N) of 0.85; a photoluminescence quantum yield (in CCO) of 0.77; a photoluminescence quantum yield (in CO) of 0.77; a photoluminescence quantum yield (in Cc1ccccc1) of 0.87; a photoluminescence quantum yield (in ClC(Cl)Cl) of 0.86.
As to `CCOC(=O)c1c2c3c(ccc(Cl)c3c3cc4c(cc13)[Si](C)(C)O[Si]4(C)C)N(C)C2=O`, the photoluminescence quantum yield (in CC#N) was determined as 0.45.
As for `c1ccc(-c2nc3c4ccccc4c4ccccc4c3n2-c2ccc(-c3nc4c5ccccc5c5ccccc5c4n3-c3ccccc3)cc2)cc1`, the photoluminescence quantum yield (in Cc1ccccc1) is 0.82.
On to `c1ccc(-c2pc3ccccc3s2)cc1` (stereo unspecified), for which the photoluminescence quantum yield (in CC#N) stood at 0.044.
On to `CC/[NH+]=c1\cc2oc3cc(NC)c(C)cc3c(-c3ccccc3C(=O)OCC)c-2cc1C`, for which the photoluminescence quantum yield worked out at 0.94 (in CCO) and 0.95 (in O).
As for `COc1cccc(-c2nc3sc4ccccc4c3s2)c1`, the photoluminescence quantum yield (in CS(C)=O) came out at 0.62.
As to `CCCCCCc1ccc(-n2c3[n+](c4c5ccccc5c5ccccc5c42)[B-](C)(C)c2ccc4ccccc4c2-3)cc1`, the photoluminescence quantum yield is, setting by setting: (in C1CCOC1) 0.11; (in CC#N) 0.07; (in Cc1ccccc1) 0.16; (in ClCCl) 0.08.
Under “in ClC(Cl)Cl”, `CCCCCCc1ccc(-n2c3c4cccc(OC)c4nc(-c4ccc(C)cc4)c3c3c2c2c(-c4ccc(C)cc4)nc4c(OC)cccc4c2n3-c2ccc(CCCCCC)cc2)cc1` returned a photoluminescence quantum yield of 0.02.
For `CC1(C)c2ccccc2N(c2ccc(-c3cnc(C#N)nc3)cc2)c2ccccc21`, the photoluminescence quantum yield runs as follows: (in Cc1ccccc1) 0.311; (in N#Cc1ccc2c(c1)c1ccccc1n2-c1cccc(-n2c3ccccc3c3ccccc32)c1) 1.
In the case of `CC1=N/C(=C\c2cccc(N(C)C)c2)C(=O)N1C`, the photoluminescence quantum yield runs as follows: (in C1CCOC1) 0.14; (in CC#N) 0.05; (in CCCCCC) 0.46.
`CC(=O)c1c(N[C@@H](Cc2ccc(O)cc2)C(=O)O)c2ccc(N(C)C)cc2oc1=O` gave a photoluminescence quantum yield (in ClCCl) of 0.005.
Regarding `OCc1ccc2c3cccc4cccc(c5cccc1c52)c43`, the photoluminescence quantum yield (in CCO) was determined as 0.95.
For the setting “in CS(C)=O”, `O=C1CCCC2=C1C(c1ccc([N+](=O)[O-])cc1)c1c(c3ccccc3oc1=O)N2` (stereo unspecified) gave a photoluminescence quantum yield of 0.014.
The molecule `COc1ccc(C#Cc2ccccc2C#Cc2ccc(OC)cc2)cc1` displayed a photoluminescence quantum yield (in CC#N) of 0.83.
In turn, `C#CCOc1ccc(/C=C/C2=[N+]3C(=C(c4ccc(N(C)CC)cc4)c4c(C)cc(C)n4[B-]3(F)F)C(C)=C2)cc1` returned a photoluminescence quantum yield (in CO) of 0.84.
Molecule `N#Cc1ccc(-n2c(-c3ccc(-c4ccc(-c5nc6c7ccccc7c7ccccc7c6n5-c5ccc(C#N)c6ccccc56)cc4)cc3)nc3c4ccccc4c4ccccc4c32)c2ccccc12` yielded a photoluminescence quantum yield (in ClCCl) of 0.85.
In turn, `O=P1(c2ccccc2)C(c2ccc(C3=Cc4ccccc4P3(=O)c3ccccc3)cc2)=Cc2ccccc21` (stereo unspecified) displayed a photoluminescence quantum yield (in C1CCOC1) of 0.29.
Molecule `C=CB1C=Cc2ccc3ccccc3c2N1` showed a photoluminescence quantum yield (in C1CCCCC1) of 0.42.
For `CN(C)c1ccc(/C=C2\OC(=O)c3cc(N)ccc32)cc1`, the photoluminescence quantum yield came to 0.24 (in CC#N); 0.26 (in CC(C)=O); 0.36 (in CC(C)CO); 0.31 (in CC(C)O); 0.28 (in CCCO); 0.22 (in CCO). The photoluminescence quantum yield reads like this: (in CCOC(C)=O) 0.37; (in CCOCC) 0.4; (in CO) 0.22.
